The record followed here is US11931368B2, “Glucocorticoid “nintedanib” particles and their use” (CRITITECH, INC., priority 2017, dated 2024).

Series [1] is described as follows: Particle size distribution (volume, laser-light diffraction). The series is classed as physicochemical. The source says: The particle size of the particles of all aspects disclosed herein can be determined by a particle size analyzer instrument and the measurement is expressed as the mean diameter based on a volume distribution (volume). A suitable particle size analyzer instrument is one which employs the analytical technique of […]. A suitable laser-light diffraction particle size analyzer instrument is the Mastersizer, such as the Mastersizer 3000, available from Malvern Instruments, United Kingdom.

Series [2] in a line: Specific surface area by BET isotherm. Format: physicochemical. The protocol: As used herein, the “specific surface area” (SSA) is the total surface area of the particle per unit of compound mass as measured by the Brunauer-Emmett-Teller (“BET”) isotherm by the following method: a known mass between 200 and 300 mg of the analyte is added to a 30 mL sample tube. The loaded tube is then mounted to a Porous Materials Inc. SORPTOMETER®, model BET-202A. The automated test is then carried out using the BETWIN® software package and the surface area of each sample is subsequently calculated. Such an increase in SSA results in significant increases in dissolution rates in relevant media as compared to therapeutic particles produced by conventional means. The “therapeutic particles” can include both agglomerated therapeutic particles and non-agglomerated therapeutic particles; since the SSA is determined on a per gram basis it takes into account both agglomerated and non-agglomerated therapeutic particles in the composition. The BET specific surface area test procedure is a compendial method included in both the United States Pharmaceopeia and the European Pharmaceopeia.

In series [1], `CCC(=O)O[C@]1(C(=O)SCF)[C@H](C)C[C@H]2[C@@H]3C[C@H](F)C4=CC(=O)C=C[C@]4(C)[C@@]3(F)[C@@H](O)C[C@@]21C` [Raw fluticasone, fluticasone propionate] registered a Dv10 of 10.9 μm, a Dv50 of 39.0 μm and a Dv90 of 74.4 μm. Besides, the “SSA (specific surface area)” value in series [2] stood at 4.11 m^2/g.
In series [1], `COC(=O)c1ccc2c(c1)NC(=O)/C2=C(\Nc1ccc(N(C)C(=O)CN2CCN(C)CC2)cc1)c1ccccc1` [Raw nintedanib, nintedanib] had a Dv10 of 10.5 μm, a Dv50 of 36.8 μm and a Dv90 of 70.2 μm. Moreover, the “SSA (specific surface area)” value in series [2] is given as 4.11 m^2/g.
